# Experimental data published in patent US20240122938A1, “METHODS AND COMPOSITIONS FOR TREATING UVEAL MELANOMA” (INSERM (INSTITUT NATIONAL DE LA SANTÉ ET DE LA RECHERCHE …, priority 2019, published 2024).
# Key:
# [1] = tested on: OMM1 cells; test: Cell proliferation assay; format: cell-based, human
# Procedure: (§1) Human uveal melanoma cell lines and short-term cultures derived from different patients with metastatic malignant melanoma cells were grown in DMEM supplemented with 7% FBS at 37° C. in a humidified atmosphere containing 5% CO2. Lipofectamine™ RNAiMAX and opti-MEM medium were purchased from Invitrogen (San Diego, CA, USA). ABT-263 was obtained from Euromedex and qVD from Clinisciences.
# [2] = tested on: OMM2,5 metastatic melanoma cells; test: Cell proliferation assay; format: cell-based, human
# Procedure: as §1
# [3] = tested on: primary melanoma cells; test: Cell proliferation assay; format: cell-based, human; conditions: data not shown
# Procedure: as §1
# [4] = tested on: 92.1 cells; test: Cell death / apoptosis; format: cell-based, human; conditions: data not shown
# Procedure: (§2) Cells were seeded at a density of 100 000 cells/well, in 6-well plate and treated with ABT-263 for indicated time. Cells were harvested using accutase enzyme, washed twice with ice-cold phosphate-buffered saline, resuspended in a buffer (Hepes 250 mM, NaCl 150 mM, KCl 5 mM, MgCl2 2 mM, CaCl2) 2 mM) with DAPI (1 μg/ml) and Annexin V-Alexa Fluor 647 conjugate (1/100) and incubated for 15 minutes at room temperature (25° C.) in the dark. Samples were immediately analyzed by a flow cytometer (MACS QUANT) using a laser at 405 nm excitation with a bandpass filter at 425 nm and 475 nm for DAPI detection and a laser at 635 nm excitation with a bandpass filter at 650 nm and 665 nm for Alexa Fluor 647 dye. Annexin and DAPI mono- or double positive cells were counted as dead cells.
# [5] = tested on: Mel270 cells; test: Cell death / alive cells by Annexin V/DAPI FACS; format: cell-based, human; conditions: GSK2606414 5 μM, 48 h
# Procedure: FIG. 5: PERK dampens ABT-263 killing activity. (A) Q-PCR analysis of PERK level in Mel270 uveal melanoma cells treated with control (siCtl) or PERK (siPERK) siRNA for 48 hr. (B) Mel270 cells were treated with control (siCtl) or PERK (siPERK) siRNA for 48 hrs before being exposed to ABT-263 3 μM for 48 hr. FACS analyses of Annexin V/DAPI double staining in […] indicate alive (white) or dead (early, late apoptosis and necrosis in light grey) cells. (C) Mel270 cells were treated with ABT-263 5 μM or GSK2606414 5 μM alone or in combination for 48 h.
# as §2
# [6] = tested on: ER stress molecules in Mel270 cells; test: Western blot of ER stress molecules; format: cell-based, human
# Procedure: Western blot of ER stress molecules in Mel270 cells treated with ABT-263 5 μM in the absence or presence of QVD-OPh 20 μM. Representative western blot are shown.
# (§3) Western blotting was performed as previously described 25,26. Briefly, cell lysates (30 μg) were separated using SDS-PAGE, transferred onto a PVDF membrane and subsequently exposed to the appropriate antibodies, anti-BCL2 (ms-123-PO) was from neomarker, anti-caspase 3 (#610323) was from BD, anti-BAX (#8429) was from sigma, anti-PARP (#9542), anti-BCL-XL (#2762), anti-caspase 9 (#9502) and anti-PUMA (#4976) were from Cell Signaling Technology Inc, anti-MCL1 (#sc-819), anti-NOXA (#56169), and anti-HSP90 (#sc-13119) were from Santa Cruz biotechnology. The proteins were visualized using the ECL system (Amersham).
# [7] = tested on: OMM1 uveal melanoma cells; test: Mitochondrial membrane potential by TMRE staining; format: cell-based, human; conditions: OMM1 cells
# Procedure: (§4) FIG. 1. ABT-263 induces apoptosis of uveal melanoma cells. Detection of the mitochondrial membrane potential using TMRE staining in Mel270 and OMM1 uveal melanoma cells exposed to ABT-263 3 μM or 5 μM for 48 h in the absence or presence of QVD-OPh 20 μM.
# [8] = tested on: Mel270 uveal melanoma cells; test: Mitochondrial membrane potential by TMRE staining; format: cell-based, human; conditions: Mel270 cells
# Procedure: as §4
# [9] = tested on: PARP, caspase 9 and caspase 3 in primary and metastatic uveal melanoma cells; test: Western blot of PARP and caspases; format: cell-based, human; conditions: pretreatment with pan caspase inhibitor
# [10] = tested on: panel of human uveal melanoma cell lines; test: Cell death by Annexin V/DAPI staining with qVD; format: cell-based; conditions: all cell lines
# Procedure: as §2
# [11] = tested on: ER stress molecules in metastatic human uveal melanoma cells; test: Western blot of ER stress molecules; format: cell-based; conditions: OMM1
# Procedure: as §3, with “(Amersham). The western blots shown are representative of at least 3 independent experiments.” for “(Amersham).”
compound,measurement,setting,value
CC1(C)CCC(CN2CCN(c3ccc(C(=O)NS(=O)(=O)c4ccc(NCC5CCOCC5)c([N+](=O)[O-])c4)c(Oc4cnc5[nH]ccc5c4)c3)CC2)=C(c2ccc(Cl)cc2)C1 [ABT-199],proliferation inhibition,"[1]; OMM1 cells, data not shown",15%
CN(C)CC[C@H](CSc1ccccc1)Nc1ccc(S(=O)(=O)NC(=O)c2ccc(N3CCN(Cc4ccccc4-c4ccc(Cl)cc4)CC3)cc2)cc1[N+](=O)[O-] [ABT-737],proliferation,[2],strongly reduced proliferation
same,"proliferation, response of primary melanoma cells",[3],highly resistant
same,proliferation,[1]; OMM1 metastatic melanoma cells,strongly reduced proliferation
Cn1cc(-c2ccc3c(c2)CCN3C(=O)Cc2cccc(C(F)(F)F)c2)c2c(N)ncnc21 [GSK2606414],sensitivity of 92.1 cells to ABT-263 with GSK2606414,[4],resensitized
same,"viable cells, alone",[5],no effect
same,CHOP and ATF4 accumulation,"[6]; cell line not stated, data not shown",inhibited CHOP and ATF4 accumulation
CC(C)[C@H](NC(=O)c1ccc2ccccc2n1)C(=O)N[C@@H](CC(=O)O)C(=O)COc1c(F)cccc1F [qVD],effect of qVD on mitochondrial membrane depolarization after ABT-263,[7],prevented mitochondrial membrane depolarization
same,effect of qVD on mitochondrial membrane depolarization after ABT-263,[8],did not prevent it
same,effect of qVD on ABT-263 mediated change in ER molecules,"[6]; Mel270, QVD-OPh 20 μM",did not impact
same,PARP and caspase cleavage under ABT-263 after QVD pretreatment,[9],prevented PARP and caspase cleavage
same,effect of qVD on ABT-263 cytotoxicity,[10],protective effect
tunicamycin,CHOP stimulation,[11],able to stimulate CHOP
